Molecular target: T1, recombinant human soluble TNFRI (Homo sapiens, UniProt P19438)
T1 construct: rHusTNFRI (22–211), prepared as a chimeric protein; Fc portion of human IgG1; 6x histidine; purchased ProSpec-Tany TechnoGene Ltd (Rehovot, Israel)
T1 sequence (P19438 22-211): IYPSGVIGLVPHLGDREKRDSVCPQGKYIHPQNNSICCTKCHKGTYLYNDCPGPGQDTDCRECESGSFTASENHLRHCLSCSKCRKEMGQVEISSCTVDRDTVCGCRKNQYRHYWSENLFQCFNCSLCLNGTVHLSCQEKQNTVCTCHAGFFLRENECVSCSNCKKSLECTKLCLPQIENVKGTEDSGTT
Assay: Inhibition of biotin-labelled TNF70–80 binding to immobilised soluble TNFRI
Settings: tested at 1 mM in the presence of 10 μM biotinylated TNF70–80
Method: Microtitre plates were coated with 100 μl/well of 3 μg/ml rHusTNFRI (ProSpec-Tany TechnoGene Ltd, Rehovot, Isreal) in 18MQ-cm H2O overnight at 4 °C and blocked with 1% BSA and 0.05% Tween-20 in PBS for 1 h at 4 °C. Aliquot of 10 μM of biotin-labelled TNF70–80 (Auspep Pty, Ltd., Tullamarine, VIC, Australia) plus various concentrations of unlabelled TNF70–80 or control peptide were added to each well and incubated for 3 h at 4 °C. The wells were washed four times with wash buffer (PBS containing 0.05% Tween-20) and the plates were incubated with 100 μl/well of poly-horseradish peroxidase streptavidin conjugate (1/6000 dilution in 1% BSA and 0.05% Tween-20 in PBS) for 45 min at 4 °C. Wells were washed four times with wash buffer and bound enzyme detected by the addition of 3′,3′,5′,5′-tetramethylbenzidine (TMB) substrate (Sigma-Aldrich, Castle Hill, NSW, Australia). Absorbance was measured using dual filter at 570/450 nm on a Dynatech MR700 Plate Reader (Guernsey, Channel Islands).

## GGDPGIVTH [scrambled peptide (GGDPGIVTH), control peptide of TNF70–80 (…)]
  binding to immobilised TNFR1 (competition with biotinylated TNF70–80): Lack of binding

Reference: PMC5893557, “Small tumor necrosis factor receptor biologics inhibit the tumor necrosis factor-p38 signalling axis and inflammation” (Nature Communications, 2018)
